Holding throughout (experiment): NCI-60 cell line screen, 48 h
The subject of experiment [1] is A498 renal.
For experiment [2], the system named is CAKI-1 renal.
For experiment [3], the system named is DU-145 prostate.
Experiment [4] concerns EKVX NSCLC.
For experiment [5], the system named is HS 578T breast.
Experiment [6] deals with KM12 colon.
For experiment [7], the system named is NCI-H226 lung.
Experiment [8] concerns SF-539 CNS.
The test system of experiment [9] is SK-MEL-2 melanoma.
Experiment [10] has as its system UACC-257 melanoma.

Molecules are shown by their SMILES.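 Compound exposure: 48 hours, 5 concentrations, 96-well plates. GI50 = concentration required for 50% inhibition of growth. The concentration for full growth arrest is given as TGI.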

In the case of `CC1=C[C@H]2c3c(c(O)c(O)c4oc(-c5ccccc5)cc(=O)c34)[C@H](c3cc(O)c(O)c4oc(-c5ccccc5)cc(=O)c34)[C@H]2C(C)(C)C1`, the GI50 in experiment [1] is 0.659 µM; in experiment [2] it was 0.621 µM; in [3] it was 0.408 µM; in experiment [4], 1.14 µM; in experiment [5], 0.412 µM; in experiment [6] it was 1.41 µM. In addition, the GI50 in experiment [7] was 1.36 µM; in experiment [8], 0.364 µM; in experiment [9], 1.77 µM; in experiment [10] it was 1.72 µM. The TGI in [1] was 3.72 µM; in [2] it was 4.57 µM; in [3], over 75 µM; in experiment [4], 11.4 µM; in experiment [5], 10.2 µM; in [6] it was 8.96 µM. Besides, the TGI in experiment [7] came out at 3.59 µM; in experiment [8] it was 7.52 µM; in experiment [9], 9.61 µM; in experiment [10] it was 9.47 µM.
With `CCSc1nc(SCC)c2cn[nH]c2n1`, the GI50 in [1] is 2.47 µM; in experiment [2] it was 22.9 µM; in experiment [3], 30.6 µM; in experiment [4] it was 18.9 µM; in [5], 10.7 µM; in experiment [6] it was 42 µM. The GI50 in experiment [7] was 25.6 µM; in [8], 21.8 µM; in experiment [9] it was 61.5 µM; in experiment [10] it was 89 µM. Also, the TGI in experiment [1] was 13.1 µM; in [2], 74.6 µM; in [3], over 100 µM; in [4], over 100 µM; in experiment [5] it was 48.6 µM; in experiment [6] it was over 100 µM. The TGI in experiment [7] was over 100 µM; in experiment [8] it was 82.9 µM; in experiment [9], over 100 µM; in experiment [10], over 100 µM.
For `C=C1CCC(CC[C@@H]2CC[C@]3(OC2)O[C@@]2(O)CC[C@]3(C)OC2(C)C)C(C)(C)[C@H]1C/C=C1/C(=O)OC[C@@H]1O` (stereo not given in full), the TGI was 15.2 µM in experiment [1]; 16.5 µM in experiment [2]; 14.8 µM in [3]; 11.3 µM in experiment [4]; 28.8 µM in [5]; 6.35 µM in experiment [6]. Further, the TGI in [7] is 6.94 µM; in experiment [8], 9.18 µM; in experiment [9], 1.36 µM; in experiment [10], 4.84 µM.
On to `O=S(=O)(Nc1cc(Sc2cccc3cccnc23)c(O)c2ccccc12)c1ccccc1`, for which the GI50 was 4.01 µM in experiment [1]; 1.97 µM in experiment [2]; 0.828 µM in experiment [3]; 1.01 µM in experiment [4]; 3.27 µM in experiment [5]; 2.03 µM in experiment [6]. Moreover, the GI50 is 2.45 µM in experiment [7], 0.957 µM in [8], 2.48 µM in [9] and 1.87 µM in [10]. Further, the TGI in experiment [1] came out at 30.6 µM; in experiment [2], 10.1 µM; in [3], 9.83 µM; in experiment [4], 8.55 µM; in experiment [5], 79.3 µM; in experiment [6], 16.5 µM. In addition, the TGI in [7] was 25.4 µM; in [8], 5.13 µM; in experiment [9], 13.4 µM; in [10], 5.01 µM.
As to `CN(C)CCN1C(=O)c2ccc3c4c(ccc(c24)C1=O)C(=O)N(CCN=C=S)C3=O`, the GI50 is 0.0529 µM in experiment [1]; 0.0448 µM in experiment [2]; 0.0415 µM in experiment [3]; 0.396 µM in experiment [4]; 0.127 µM in [5]; 0.0415 µM in [6]. Besides, the GI50 in experiment [7] was 0.1 µM; in experiment [8], 0.0482 µM; in experiment [9] it was 0.0563 µM; in experiment [10], 0.0849 µM. Besides, the TGI in [1] turned out to be 0.207 µM; in experiment [2] it was 0.785 µM; in [3] it was 0.149 µM; in [4], 1.5 µM; in [5] it was 0.68 µM; in experiment [6], 0.173 µM. The TGI in [7] was found to be 0.325 µM; in [8], 0.212 µM; in [9], 0.225 µM; in experiment [10], 0.216 µM.
Consider `C#Cc1c(I)n(C2OC(CO[Si](C)(C)C(C)(C)C)C3OC(C)(C)OC32)c(=O)[nH]c1=O` (stereo not given), for which the GI50 in [1] was 17.1 µM; in experiment [2], 11.6 µM; in experiment [3], 4.57 µM; in experiment [4], 20.6 µM; in [5] it was 19.7 µM; in experiment [6], 16.9 µM. Moreover, the GI50 in [7] was 17.7 µM; in [8], 16.6 µM; in experiment [9], 5.35 µM; in [10], 15.2 µM. In addition, the TGI in experiment [1] was 35.7 µM; in experiment [2] it was 24.8 µM; in [3] it was 19.4 µM; in [4], 52.3 µM; in experiment [5], 66.8 µM; in [6], 35.6 µM. The TGI in [7] was determined as 32.5 µM; in [8], 31.4 µM; in experiment [9], 26.1 µM; in experiment [10], 29.8 µM.
With `CN(C)C(=O)[C@H](O)[C@H](Cc1ccccc1)NC(=O)c1cc2cc(Cl)ccc2[nH]1`, the GI50 in experiment [1] was 12.1 µM; in experiment [2], 19.3 µM; in experiment [3], 33.3 µM; in experiment [4] it was 25.7 µM; in experiment [5], 27.5 µM; in [6] it was 27.2 µM. Further, the GI50 in experiment [7] is 23 µM; in [8], 20.2 µM; in [9], 17.2 µM; in experiment [10] it was 16.2 µM. Moreover, the TGI is 54.1 µM in experiment [1]; over 77.5 µM in experiment [2]; over 100 µM in experiment [3]; over 100 µM in experiment [4]; over 100 µM in experiment [5]; over 87.7 µM in [6]. In addition, the TGI was over 88.2 µM in experiment [7], 43.3 µM in experiment [8], 37.2 µM in experiment [9] and 43.5 µM in [10].

These data come from PubChem BioAssay (NCI).
